Measurements reported in US11780845B2 (Relay Therapeutics, Inc., priority 2019, dated 2023).

Legend:
SNU-16 = test: Cell SNU-16 assay; assay type: cell-based
FGFR2 = FGFR2 (Homo sapiens (Human), UniProt P21802); test: Biochemical FGFR2 Caliper assay
[1] = Homo sapiens, SNU-16, SNU-16 cells

Sequence of FGFR2 (P21802 22-821): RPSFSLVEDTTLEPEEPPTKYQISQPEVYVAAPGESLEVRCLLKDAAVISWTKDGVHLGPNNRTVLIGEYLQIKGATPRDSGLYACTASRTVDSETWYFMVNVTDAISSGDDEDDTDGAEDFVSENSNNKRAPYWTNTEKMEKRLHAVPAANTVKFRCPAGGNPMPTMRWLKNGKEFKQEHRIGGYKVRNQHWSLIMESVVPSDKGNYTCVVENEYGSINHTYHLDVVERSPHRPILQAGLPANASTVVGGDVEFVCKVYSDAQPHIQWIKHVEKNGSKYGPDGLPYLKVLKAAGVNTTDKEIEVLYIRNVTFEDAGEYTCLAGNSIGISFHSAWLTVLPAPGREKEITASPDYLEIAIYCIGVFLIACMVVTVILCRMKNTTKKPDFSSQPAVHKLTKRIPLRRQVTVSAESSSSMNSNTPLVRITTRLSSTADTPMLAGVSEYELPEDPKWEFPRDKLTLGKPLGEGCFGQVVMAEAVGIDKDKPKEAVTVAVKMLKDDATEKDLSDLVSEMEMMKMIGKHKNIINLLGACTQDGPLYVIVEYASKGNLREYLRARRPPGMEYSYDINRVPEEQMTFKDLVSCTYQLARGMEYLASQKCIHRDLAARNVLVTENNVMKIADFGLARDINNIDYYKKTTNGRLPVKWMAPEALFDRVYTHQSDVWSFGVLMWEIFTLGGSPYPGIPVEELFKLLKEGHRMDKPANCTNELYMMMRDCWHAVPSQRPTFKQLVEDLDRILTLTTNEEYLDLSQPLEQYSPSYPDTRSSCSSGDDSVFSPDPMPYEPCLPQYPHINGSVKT

| IC50 (SNU-16; SNU-16 cells) [µM] | IC50 (FGFR2) [µM] | SMILES | also measured |
| --- | --- | --- | --- |
|  | < 0.1 | C#Cc1cc(C)c(-c2c(-c3ncc(Oc4nccc(C)n4)cc3F)c3c(N)ncnc3n2C)c(C)n1 (atropisomer, axis not shown) [Example 1453] | IC50 (SNU-16; [1]): ≤ 0.1 µM |
| ≤ 0.1 | < 0.1 | C#Cc1cc(OC)c(-c2c(-c3ccc(Oc4nccc(C)n4)c(F)c3)c3c(C)ncnc3n2C)c(C)n1 (atropisomer, axis not shown) [Example 1459] |  |
| 0.25 to 1 | 1 to 100 | C#Cc1cc(OC)c(-c2c(-c3ccc(Oc4nccc(C)n4)c(F)c3)c3c(C)ncnc3n2C)c(C)n1 (atropisomer, axis not shown) [Example 1460] |  |
|  | 0.1 to 0.25 | C#Cc1cc(C)c(-c2c(C3=CC[C@H](C(=O)N4CCC[C@H]4C#N)CC3)c3c(C)ncnc3n2C)c(C)n1 (atropisomer, axis not shown) [Example 1463] | IC50 (SNU-16; [1]): ≤ 0.1 µM |
| 0.25 to 1 | 0.25 to 1 | C#Cc1cc(C)c(-c2c(C3=CC[C@@H](C(=O)N4CCC[C@H]4C#N)CC3)c3c(C)ncnc3n2C)c(C)n1 (atropisomer, axis not shown) [Example 1464] |  |
| ≤ 0.1 | < 0.1 | C#Cc1cc(C)c(-c2c(C3=CC[C@H](C(=O)N4CCC[C@H]4C#N)CC3)c3c(C)ncnc3n2C)c(C)n1 (atropisomer, axis not shown) [Example 1465] |  |
| 0.1 to 0.25 | 0.1 to 0.25 | C#Cc1cc(C)c(-c2c(C3=CC[C@@H](C(=O)N4CCC[C@H]4C#N)CC3)c3c(C)ncnc3n2C)c(C)n1 (atropisomer, axis not shown) [Example 1466] |  |
|  | < 0.1 | C#Cc1cc(C)c(-c2c(C3=CC[C@H](C(=O)N4CCC[C@H]4C#N)CC3)c3c(N)ncnc3n2C)c(C)n1 (atropisomer, axis not shown) [Example 1469] | IC50 (SNU-16; [1]): ≤ 0.1 µM |
| ≤ 0.1 |  | C#Cc1cc(C)c(-c2c(C3=CC[C@H](C(=O)N4CCC[C@H]4C#N)CC3)c3c(N)ncnc3n2C)c(C)n1 (atropisomer, axis not shown) [Example 1470] |  |
|  | < 0.1 | C#Cc1cc(C)c(-c2c(C3=CC[C@@H](C(=O)N4CCC[C@H]4C#N)CC3)c3c(N)ncnc3n2C)c(C)n1 (atropisomer, axis not shown) [Example 1471] | IC50 (SNU-16; [1]): ≤ 0.1 µM |
| ≤ 0.1 |  | C#Cc1cc(C)c(-c2c(C3=CC[C@@H](C(=O)N4CCC[C@H]4C#N)CC3)c3c(N)ncnc3n2C)c(C)n1 (atropisomer, axis not shown) [Example 1472] |  |
| ≤ 0.1 |  | C#Cc1cc(C)c(-c2c(-c3ncc(Oc4nccc(C)n4)cc3F)c3c(N)ncnc3n2C)c(C)n1 (atropisomer, axis not shown) [Example 1493] |  |
| 1 to 100 |  | C=C(C)C(=O)Nc1cc(C)c(-c2c(C3=CC[C@@H](C(=O)N4CCCC4)CC3)c3c(N)ncnc3n2C)c(C)c1 (single isomer, unassigned) [Example 1485] |  |
| 1 to 100 |  | C=C(C)C(=O)Nc1cc(C)c(-c2c(C3=CC[C@H](C(=O)N4CCCC4)CC3)c3c(N)ncnc3n2C)c(C)c1 (single isomer, unassigned) [Example 1487] |  |
| ≤ 0.1 |  | C#Cc1cc(OC)c(-c2c(C3=CC[C@H](C(=O)N4CCC[C@H]4C#N)CC3)c3c(C)ncnc3n2C)c(C)n1 [Example 1474] |  |
| ≤ 0.1 |  | C#Cc1cc(OC)c(-c2c(-c3ncc(Oc4nccc(C)n4)cc3F)c3c(N)ncnc3n2C)cn1 [Example 1489] |  |
| ≤ 0.1 |  | C#Cc1cc2c(cn1)-c1c(-c3ccc(Oc4nccc(C)n4)c(F)c3)c3c(N)ncnc3n1CCO2 [Example 1494] |  |
|  | 0.25 to 1 | C#Cc1cc2c(cn1)-c1c(C3=CC[C@H](C(=O)N4CCC[C@H]4C#N)CC3)c3c(N)ncnc3n1CCC2 [Example 1496] |  |

Second part, the molecule before the results:

| SMILES | IC50 (SNU-16; SNU-16 cells) [µM] | IC50 (FGFR2) [µM] | also measured |
| --- | --- | --- | --- |
| C#Cc1ccc(-c2c(-c3ccc(Oc4nccc(C)n4)c(F)c3)c3c(N)ncnc3n2C(C)C)c(C)n1 (atropisomer, axis not shown) [Example 1258] | ≤ 0.1 |  |  |
| C#Cc1ccc(-c2c(-c3ccc(Oc4nccc(C)n4)c(F)c3)c3c(N)ncnc3n2C(C)C)c(C)n1 (atropisomer, axis not shown) [Example 1259] | ≤ 0.1 |  |  |
| C#Cc1cc(C)c(-c2c(-c3ccc(Oc4nccc(C)n4)c(F)c3)c3c(N)ncnc3n2C(C)C)cn1 (atropisomer, axis not shown) [Example 1307] | ≤ 0.1 |  |  |
| C#Cc1cc(C)c(-c2c(-c3ccc(Oc4nccc(C)n4)c(F)c3)c3c(N)ncnc3n2C(C)C)cn1 (atropisomer, axis not shown) [Example 1308] | ≤ 0.1 |  |  |
| C#Cc1cc(C)c(-c2c(-c3ccc(Oc4nccc(C)n4)c(F)c3)c3c(N)ncnc3n2C)c(F)n1 (atropisomer, axis not shown) [Example 1339] | ≤ 0.1 |  |  |
| C#Cc1cc(C)c(-c2c(-c3ccc(Oc4nccc(C)n4)c(F)c3)c3c(N)ncnc3n2C)c(F)n1 (atropisomer, axis not shown) [Example 1340] | ≤ 0.1 |  |  |
| C#Cc1cc(C)c(-c2c(-c3ccc(Oc4nccc(C)n4)c(F)c3)c3c(N)ncnc3n2C)c(C)n1 (atropisomer, axis not shown) [Example 1342] | ≤ 0.1 |  |  |
| C#Cc1cc(C)c(-c2c(-c3ccc(Oc4nccc(C)n4)c(F)c3)c3c(N)ncnc3n2C)c(C)n1 (atropisomer, axis not shown) [Example 1344] | ≤ 0.1 |  |  |
| C#Cc1cc(C)c(-c2c(C3=CC[C@H](C(=O)N4CCC[C@H]4C)CC3)c3c(N)ncnc3n2C)c(F)n1 (atropisomer, axis not shown) [Example 1348] | ≤ 0.1 | 0.1 to 0.25 |  |
| C#Cc1cc(C)c(-c2c(C3=CC[C@H](C(=O)N4CCC[C@H]4C)CC3)c3c(N)ncnc3n2C)c(F)n1 (atropisomer, axis not shown) [Example 1349] | ≤ 0.1 |  |  |
| C#Cc1cc(C)c(-c2c(-c3ccc(Oc4nccc(C)n4)c(F)c3)c3c(N)ncnc3n2[C@H]2C[C@H](O)C2)cn1 (atropisomer, axis not shown) [Example 1357] |  | < 0.1 | IC50 (SNU-16; [1]): ≤ 0.1 µM |
| C#Cc1ncc(-c2c(-c3ccc(Oc4nccc(C)n4)c(F)c3)c3c(N)ncnc3n2C(C)C)c(C)c1F (atropisomer, axis not shown) [Example 1360] | ≤ 0.1 |  |  |
| C#Cc1ncc(-c2c(-c3ccc(Oc4nccc(C)n4)c(F)c3)c3c(N)ncnc3n2C(C)C)c(C)c1F (atropisomer, axis not shown) [Example 1361] | ≤ 0.1 |  |  |
| C#Cc1cc(OC)c(-c2c(-c3ccc(Oc4nccc(C)n4)c(F)c3)c3c(C)ncnc3n2C)c(C)n1 (atropisomer, axis not shown) [Example 1446] | ≤ 0.1 | < 0.1 |  |
| Cn1c([C@@H]2CCN(C#N)C2)c(-c2ccc(C(=O)N3CCCC3)cc2)c2c(N)ncnc21 (single isomer, unassigned) [Example 860] |  | < 0.1 | IC50 (SNU-16; [1]): 0.25 to 1 µM |
| Cn1c([C@H]2CCN(C#N)C2)c(-c2ccc(C(=O)N3CCCC3)cc2)c2c(N)ncnc21 (single isomer, unassigned) [Example 861] |  | 1 to 100 | IC50 (SNU-16; [1]): 1 to 100 µM |
| C=CS(=O)(=O)N1CC[C@H](c2c(-c3ccc(C(=O)N4CCCC4)cc3)c3c(N)ncnc3n2C)C1 (single isomer, unassigned) [Example 863] |  | 0.25 to 1 | IC50 (SNU-16; [1]): 0.1 to 0.25 µM |
| C=CS(=O)(=O)N1CC[C@@H](c2c(-c3ccc(C(=O)N4CCCC4)cc3)c3c(N)ncnc3n2C)C1 (single isomer, unassigned) [Example 864] |  | < 0.1 | IC50 (SNU-16; [1]): 0.1 to 0.25 µM |

| SMILES | IC50 (SNU-16; SNU-16 cells) [µM] | IC50 (FGFR2) [µM] | also measured |
| --- | --- | --- | --- |
| C=C(C)C(=O)Nc1ccc(-c2nn3ccnc(N)c3c2C2=CC[C@@H](C(=O)N3CCCC3)CC2)cc1 (single isomer, unassigned) [Example 867] |  | < 0.1 | IC50 (SNU-16; [1]): ≤ 0.1 µM |
| C=C(C)C(=O)Nc1ccc(-c2nn3ccnc(N)c3c2C2=CC[C@H](C(=O)N3CCCC3)CC2)cc1 (single isomer, unassigned) [Example 869] |  | 1 to 100 | IC50 (SNU-16; [1]): 0.25 to 1 µM |
| C=CC(=O)N1CC=C(c2c(C3=CC[C@H](C(=O)N4CCCC4)CC3)c3c(N)ncnc3n2C)C1 (single isomer, unassigned) [Example 871] |  | 0.25 to 1 | IC50 (SNU-16; [1]): 0.25 to 1 µM |
| C=CC(=O)Nc1ccc(-c2c(C3=CC[C@H](C(=O)N4CCCC4)CC3)c3c(N)ncnc3n2C)cc1 (single isomer, unassigned) [Example 1049] | ≤ 0.1 |  |  |
| C=CC(=O)Nc1ccc(-c2c(C3=CC[C@@H](C(=O)N4CCCC4)CC3)c3c(N)ncnc3n2C)cc1 (single isomer, unassigned) [Example 1051] | ≤ 0.1 |  |  |
| C=C(C)C(=O)Nc1ccc(-c2c(-c3ccc(Oc4nccc(C)n4)c(F)c3)c3c(N)ncnc3n2C)cc1 [Example 1028] |  |  | IC50 (SNU-16; Homo sapiens, SNU-16 cells): ≤ 0.1 µM |
| C=CC(=O)Nc1ccc(-c2c(-c3ccc(Oc4nccc(C)n4)c(F)c3)c3c(C)ncnc3n2C)c(C)c1 [Example 1127] | ≤ 0.1 |  |  |
| C#Cc1ncc(-c2c(C3=CC[C@H](C(=O)N4CCCC4)CC3)c3c(C)ncnc3n2C)c(C)n1 [Example 1179] | ≤ 0.1 |  |  |
| C=C(C)C(=O)Nc1ccc(-c2c(-c3ccc(-c4noc(C5CC5)n4)cc3)c3c(N)ncnc3n2C)cc1 [Example 1333] |  | 0.25 to 1 |  |
| C=CC(=O)Nc1ccc(-c2c(-c3ccc(-c4noc(C5CC5)n4)cc3)c3c(N)ncnc3n2C)cc1 [Example 1335] |  | < 0.1 |  |
| C=C(C)C(=O)Nc1ccc(-c2c(-c3ccc(-c4noc(C5CC5)n4)cc3)c3c(N)ncnc3n2C)cn1 [Example 1362] |  | 0.1 to 0.25 |  |
| C#Cc1cc(C)c(-c2c(-c3ccc(Oc4nccc(C)n4)c(F)c3)c3c(C)ncnc3n2C)c(C)n1 [Example 1409] | ≤ 0.1 |  |  |
| C#Cc1cc(C)c(-c2c(-c3ccc(Oc4nccc(C)n4)c(F)c3)c3c(C)ncnc3n2C)c(C)n1 [Example 1410] | ≤ 0.1 |  |  |
| C#Cc1cc(C)c(-c2c(-c3ccc(Oc4nccc(C)n4)c(F)c3)c3c(C)ncnc3n2C)c(F)n1 [Example 1414] | ≤ 0.1 |  |  |
| C#Cc1cc(C)c(-c2c(-c3ccc(Oc4nccc(C)n4)c(F)c3)c3c(C)ncnc3n2C)c(F)n1 [Example 1415] | ≤ 0.1 |  |  |
| C#Cc1cc2c(cn1)-c1c(C3=CC[C@@H](C(=O)N4CCC[C@H]4C#N)CC3)c3c(N)ncnc3n1CCC2 [Example 1444] |  | < 0.1 |  |
| [2H]C#Cc1cc2c(cn1)-c1c(-c3ccc(Oc4nccc(C)n4)c(F)c3)c3c(N)ncnc3n1CCC2 [Example 1449] |  | < 0.1 |  |
| C#Cc1cc(OC)c(-c2c(-c3ncc(Oc4nccc(C)n4)cc3F)c3c(N)ncnc3n2C)c(C)n1 [Example 1451] |  | < 0.1 |  |
